In patent US7777000B2, “Anti-viral activity of cathelicidin peptides” (priority 2003, dated 2010):
“And” between values parts separate entries of the source, which are not always exact repeats. Identical values can stand only once. “Also recorded” adds a separate entry of the source. Where no end group is shown, it is not given here.

Key:
E. coli ML35p = experiment: Minimum bactericidal concentration / antimicrobial activity against E. coli ML35p; format: cell-based; details: for Minimum Bactericidal Concentration: mean of three independent experiments
vaccinia virions (IMV) = test system: vaccinia virions (IMV); set-up: species or system vaccinia virus (Wyeth strain); details: for alteration of virion structure: 25 μM
vaccinia virus [1] = format: cell-based, vaccinia virus (Wyeth strain)
vaccinia virus [2] = format: cell-based, vaccinia virus (Wyeth strain); remark: listed apart in the source

Row | Compound | antimicrobial activity against E. coli ML35p (E. coli ML35p) | Minimum Bactericidal Concentration (E. coli ML35p; listed as HNP) | effect on the structure of the IMV (electron microscopy) (vaccinia virions (IMV)) | alteration of virion structure (vaccinia virions (IMV)) | inhibition of vaccinia virus replication (plaque-forming units) (vaccinia virus [1]) | inhibition of vaccinia virus replication at concentrations as high as 50 μM (vaccinia virus [1]) | Minimum Bactericidal Concentration (E. coli ML35p) | amount of viral mRNA in the tissue culture cells (vaccinia virus [2]) | effective antiviral concentration relative to that required for killing of S. aureus (vaccinia virus [1]) | lowest concentration with significant reduction in viral replication (vaccinia virus [1]) | Altered virions (%) (vaccinia virions (IMV)) | Altered virions/virion number (vaccinia virions (IMV)) | contact time with vaccinia required to detect antiviral activity (vaccinia virus [1])
1 | HNP-1 | active against E. coli | 8.42 µM and 8.42 ± 0.43 µM | did not have an effect on virion structure | *25 μM HNP-1 and control peptides did not alter virion structure | did not inhibit virus replication; also recorded: did not inhibit viral replication | did not inhibit vaccinia virus replication |  |  |  |  |  |  | 
2 | GLNGPDIYKGUYQFKSVEFD [Peptide 8044] | no antimicrobial activity; also recorded: did not exhibit antimicrobial activity; also recorded: ^aControl peptide 8044 did not possess antimicrobial activity against ML35p |  | did not have an effect on virion structure | *25 μM HNP-1 and control peptides did not alter virion structure | did not inhibit virus replication; also recorded: no antiviral activity |  |  |  |  |  |  |  | 
3 | HBD-1 (DHYNCVSSGGQCLYSACPIFTKIQGTCYRGKAKCCK; ends and bridges not checked; cysteine pairing not given here; UniProt P60022 33-68, looked up) |  |  |  |  | did not inhibit viral replication | did not inhibit vaccinia virus replication | 16.02 µM and 16.03 ± 1.20 µM |  |  |  |  |  | 
4 | GLLRKGGEKIGEKLKKIGQKIKNFFQKLVPQPEQ (GLLRKGGEKIGEKLKKIGQKIKNFFQKLVPQPEQ) [CRAMP] | within reported parameters |  |  |  | concentration-dependent inhibition; also recorded: able to kill vaccinia virus |  |  | decreased in proportion to the concentration | at least one log lower | 25 µM |  |  | 
5 | CC[C@H](C)[C@H](NC(=O)[C@H](CCCCN)NC(=O)[C@H](CCC(=O)O)NC(=O)[C@H](CCCCN)NC(=O)[C@H](CO)NC(=O)[C@H](CCCCN)NC(=O)[C@H](CCCNC(=N)N)NC(=O)[C@H](Cc1ccccc1)NC(=O)[C@H](Cc1ccccc1)NC(=O)[C@H](CC(=O)O)NC(=O)CNC(=O)[C@H](CC(C)C)NC(=O)[C@@H](N)CC(C)C)C(=O)NCC(=O)N[C@@H](CCCCN)C(=O)N[C@@H](CCC(=O)O)C(=O)N[C@@H](Cc1ccccc1)C(=O)N[C@@H](CCCCN)C(=O)N[C@@H](CCCNC(=N)N)C(=O)N[C@H](C(=O)N[C@H](C(=O)N[C@@H](CCC(N)=O)C(=O)N[C@@H](CCCNC(=N)N)C(=O)N[C@H](C(=O)N[C@@H](CCCCN)C(=O)N[C@@H](CC(=O)O)C(=O)N[C@@H](Cc1ccccc1)C(=O)N[C@@H](CC(C)C)C(=O)N[C@@H](CCCNC(=N)N)C(=O)N[C@@H](CC(N)=O)C(=O)N[C@@H](CC(C)C)C(=O)N[C@H](C(=O)N1CCC[C@H]1C(=O)N[C@@H](CCCNC(=N)N)C(=O)N[C@H](C(=O)N[C@@H](CCC(=O)O)C(=O)N[C@@H](CO)C(=O)O)[C@@H](C)O)C(C)C)[C@@H](C)CC)C(C)C)[C@@H](C)CC [LL-37, LLGDFFRKSK EKIGKEFKR1 VQRIKDFLRN LVPRTES] | within reported parameters |  |  |  |  |  |  | decreased in proportion to the concentration | at least one log lower | 25 µM | 67% and 90% and 95% | 19/28 and 27/30 and 39/41 | At least one hour
